Earlier results in US10976308B2, “Plant-derived nanofibrillar cellulose hydrogel for cell culture and chemical testing” (UPM-KYMMENE CORPORATION, priority 2014, dated 2021).

Legend:
3D liver models = conditions: by Khetani et al. 2013
[1] = by Khetani et al. 2013

Row | Cmax [1] [µM] | Compound | Toxicity in 3D liver models (3D liver models)
1 | 0.2 | CC(C)NCC(O)COc1cccc2ccccc12 (stereo not shown) [propranolol] | not detected in the 3D liver models
2 | 8 | O=C(O)Cc1ccccc1Nc1c(Cl)cccc1Cl [diclofenac] | 
3 |  | CN(C)CCCN1c2ccccc2CCc2ccccc21 [imipramine] | toxicity is not detected in all 3D models tested
